Experimental findings from US11767296B2, “Heteroaryl compounds as kinase inhibitor” (FUJIAN HAIXI PHARMACEUTICALS CO., LTD, priority 2018, dated 2023) are described below.

T1 sequence (P07333 20-972): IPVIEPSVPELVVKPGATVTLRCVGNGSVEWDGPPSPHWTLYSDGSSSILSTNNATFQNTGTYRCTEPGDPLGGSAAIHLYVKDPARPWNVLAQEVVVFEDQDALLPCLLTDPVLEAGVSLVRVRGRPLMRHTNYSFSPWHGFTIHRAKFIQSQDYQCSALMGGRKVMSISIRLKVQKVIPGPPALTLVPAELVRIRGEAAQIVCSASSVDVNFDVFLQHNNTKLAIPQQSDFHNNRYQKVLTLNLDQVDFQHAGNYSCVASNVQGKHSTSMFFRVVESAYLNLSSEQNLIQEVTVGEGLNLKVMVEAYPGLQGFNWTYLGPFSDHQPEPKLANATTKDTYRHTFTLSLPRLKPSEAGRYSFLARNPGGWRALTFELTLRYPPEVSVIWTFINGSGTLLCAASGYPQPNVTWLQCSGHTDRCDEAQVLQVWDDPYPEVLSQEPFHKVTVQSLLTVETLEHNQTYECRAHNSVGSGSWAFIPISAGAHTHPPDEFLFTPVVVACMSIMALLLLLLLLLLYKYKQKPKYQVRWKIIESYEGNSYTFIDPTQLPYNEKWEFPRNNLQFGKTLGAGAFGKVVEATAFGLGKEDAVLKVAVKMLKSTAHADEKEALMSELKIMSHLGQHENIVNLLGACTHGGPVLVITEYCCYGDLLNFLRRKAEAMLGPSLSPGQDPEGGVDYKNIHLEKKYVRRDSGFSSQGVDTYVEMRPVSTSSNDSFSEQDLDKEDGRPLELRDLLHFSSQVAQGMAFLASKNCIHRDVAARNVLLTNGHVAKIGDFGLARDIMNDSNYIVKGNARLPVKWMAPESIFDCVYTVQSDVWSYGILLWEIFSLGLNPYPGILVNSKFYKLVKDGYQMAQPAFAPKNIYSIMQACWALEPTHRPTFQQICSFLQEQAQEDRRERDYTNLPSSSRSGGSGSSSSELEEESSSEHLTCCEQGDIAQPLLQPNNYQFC

One assay has as its target T1, CSF-1R (Homo sapiens, UniProt P07333).
T1 construct: purchased Invitrogen PV3249
The assay is described as follows: CSF-1R kinase assay (HTRF kinEASE TK). Type of assay: biochemical. The conditions noted are these: ATP 2.5 uM, enzyme 0.012 ng/ul, read-out: In vitro inhibitory activity of CSF-1R IC50. As to the method:
Example 53: CSF-1R Kinase Assay
I. Materials and Instruments
• 2104 EnVision® Multilabel Reader (PerkinElmer) • OptiPlate-384, White Opaque 384-well MicroPlate (Cat.6007290, PerkinElmer) • HTRF kinEASE TK (Cat.62TKOPEC, Cisbio) • CSF-1R(Cat. PV3249, Invitrogen) • ATP 10 mM (Cat. PV3227, Invitrogen) • DTT 1 M (Cat. D5545, Sigma) • MgCl2 1 M (Cat. M8266, Sigma) • MnCl2 1 M (Cat.244589. Sigma)
II. Experimental Procedure
Substrate-TK and ATP were diluted to 5 times of the reaction concentration by 1×Kinase Buffer. CSF1R enzyme was diluted to 5×enzyme solution by 1×kinase buffer. Sa-XL665 was diluted to 4×Sa-XL665 solution by Detection Buffer. 100×TK-Ab-Cryptate Solution TK-Ab-Cryptate was diluted to 100×TK-Ab-Cryptate solution by Detection Buffer. 2. Experimental Procedure After all reagents had been prepared according to the above method, except enzymes, the sample was added after equilibrium to room temperature. • a. Firstly, 2.5% DMSO solution was prepared by using 1×kinase buffer (the high concentration of DMSO will affect the reaction and control the final concentration of DMSO to 1%). Then the compounds were diluted by 2.5% DMSO solution corresponding to the enzyme. The screening concentration of the compounds was 4 times gradient dilution from 1000 nM, and 8 concentrations. In addition to the control pore, 4 microlitres of diluted solution containing 2.5% DMSO were added to the reaction pore and 4 microlitres of previously prepared solution containing 2.5% DMSO were added to the control pore. • b. 2 microlitres of previously prepared TK-biotin substrate solution was added to all reaction pore (the amount of substrate used for enzyme screening is shown in Table 15). • c. Adding 2 microlitres of CSF1R enzyme solution of corresponding concentration (the amount of enzyme is shown in Table 15) to all reaction pore except negative pore. The negative pore is supplemented with 2 microlitres of enzyme corresponding to 1 xkinase buffer. After mixing, the compound and enzyme can be fully combined by incubating at room temperature for 10 minutes. • d. Enzyme reaction was initiated by adding 2 microlitres ATP solution of corresponding concentration to all reaction pore. The reaction time was 30 minutes (the corresponding ATP concentration and reaction time at enzyme screening were shown in Table 15). • e. Preparing the test solution 5 minutes before the end of kinase reaction. Streptavidin-XL665 and TK antibody europium cryptate (1:100) were prepared with detection buffer in the kit (the corresponding concentration of detection reagent for enzyme screening is shown in Table 15). • f. After the kinase reaction, 5 microlitres of diluted Streptavidin-XL665 were added to all reaction pore, mixing, and then the diluted TK antibody europium cryptate solution was added immediately. • g. After 1 hour reaction at room temperature, the fluorescence signals (320 nm stimulation, 665 nm, 615 nm emission) were detected by ENVISION (Perkinelmer) instrument. The inhibition rate of each pore was calculated by full active pore and background signal pore, and the average value of complex pore was obtained. Meanwhile, the half inhibitory activity (IC50) of each compound was fitted by professional drawing analysis software PRISM 5.0. The Flow Chart of the Experiment is as Follows:
3. Data Analysis Emission Ratio (ER)=665 nm Emission signal/615 nm Emission signal Inhibitory rate=(ERpositive−ERsample)/(ERpositive−ERnegative)*100% Using Graphpad Prism 5 and log (inhibitor) vs. normalized response to fit IC50 curve and calculate IC50 value. The IC50 data of the compounds prepared in Representative Examples 3-52 are as follows (Table 18): […]
A general note: Time-resolved FRET reads energy transfer from a long-lived donor to a nearby acceptor.
With `Cc1cccc(NC(=O)c2cccc([C@H](C)Oc3cc(Cl)cnc3N)c2)c1` [Compound 222, (S)-3-(1-((2-amino-5-chloropyridin-3-yl)oxy)ethyl)-N-(m-tolyl)benzamide], the IC50 (as a rule, the point on the concentration scale where inhibition reaches its midpoint) lay within 51 to 500 nM.

On to `C[C@@H](Oc1cc(-c2cnn(C)c2)cnc1N)c1cccc(NC(=O)c2cccc(C3CC3)c2)c1` [Compound 174, (R)-N-(3-(1-((2-amino-5-(1-methyl-1H-pyrazol-4-yl)pyridin-3-yl)oxy)ethyl)phenyl)-cyclopropylbenzamide], for which the IC50 was at most 50 nM.

As for `C[C@@H](Oc1cc(-c2cnn(C)c2)cnc1N)c1cccc(NC(=O)c2ccc3c(c2)CCC3)c1` [Compound 188, (R)-N-(3-(1-((2-amino-5-(1-methyl-1H-pyrazol-4-yl)pyridin-3-yl)oxy)ethyl)phenyl)-2,3-dihydro-1H-indene-5-carboxamide], the IC50 was at most 50 nM.

Regarding `Cc1ccc(Cl)c(C(=O)Nc2cccc([C@@H](C)Oc3cc(Cl)cnc3N)c2)c1` [Compound 73, (R)-N-(3-(1-((2-amino-5-chloropyridin-3-yl)oxy)ethyl)-phenyl)-2-chloro-5-methylbenzamide], the IC50 was at most 50 nM.

`C[C@H](Oc1cc(Cl)cnc1N)c1cccc(NC(=O)c2cccc(Cl)c2)c1` [Compound 55, (S)-N-(3-(1-((2-amino-5-chloropyridin-3-yl)oxy)ethyl)-phenyl)-3-chlorobenzamide]: the IC50 is at most 50 nM.

Take `CNc1ncc(Cl)cc1OCc1cccc(NC(=O)c2cccc(C)c2)c1` [Compound 236, N-(3-(((5-chloro-2-(methylamino)pyridin-3-yl)oxy)methyl)phenyl)-3-methylbenzamide]: the 50% inhibitory concentration (IC50) lay within 51 to 500 nM.

`Cc1cccc(C(=O)Nc2cccc([C@@H](C)Oc3cc(Cl)cnc3N)n2)c1` [Compound 141, (R)-N-(6-(1-((2-amino-5-chloropyridin-3-yl)oxy)ethyl)-pyridin-2-yl)-3-methylbenzamide]: the IC50 fell in the range of 51 to 500 nM.

With `C[C@@H](Oc1cc(-c2cnn(C)c2)cnc1N)c1cccc(NC(=O)c2ccc(C(F)(F)F)c(S(C)(=O)=O)c2)c1` [Compound 175, (R)-N-(3-(1-((2-amino-5-(1-methyl-1H-pyrazol-4-yl)pyridin-3-yl)oxy)ethyl)phenyl)-3-(methylsulfonyl)-4-(trifluoromethyl)benzamide], the IC50 was at most 50 nM.

Regarding `Cc1cccc(C(=O)Nc2cccc(Oc3cc(Cl)cnc3N)c2)c1` [Compound 305, N-(3-((2-amino-5-chloropyridin-3-yl)oxy)phenyl)-3-methyl-benzamide], the half-maximal inhibitory concentration (IC50) was 51 to 500 nM.

Turning to `C[C@@H](Oc1cc(Cl)cnc1N)c1cccc(NC(=O)c2cccc(CN3CCN(C)CC3)c2)c1` [Compound 103, (R)-N-(3-(1-((2-amino-5-chloropyridin-3-yl)oxy)ethyl)-phenyl)-3-((4-methylpiperazin-1-yl)methyl)benzamide], the half-inhibitory concentration (IC50) fell in the range of 500 to 10000 nM.

For the molecule `Cc1cccc(C(=O)Nc2cccc([C@H](C)Oc3cc(Cl)cnc3N)c2)c1Cl` [Compound 64, (S)-N-(3-(1-((2-amino-5-chloropyridin-3-yl)oxy)ethyl)-phenyl)-2-chloro-3-methylbenzamide], the IC50 was at most 50 nM.

Turning to `Cc1cccc(NC(=O)Nc2cccc(Oc3cc(Cl)cnc3N)c2)c1` [Compound 331, 1-(3-((2-amino-5-chloropyridin-3-yl)oxy)phenyl)-3-(m-tolyl)urea], the concentration for half-maximal inhibition (IC50) is 51 to 500 nM.

Take `Cc1ccc(C(=O)Nc2cccc([C@@H](C)Oc3cc(-c4cnn(C)c4)cnc3N)c2)cc1C` [Compound 170, (R)-N-(3-(1-((2-amino-5-(1-methyl-1H-pyrazol-4-yl)pyridin-3-yl)oxy)ethyl)phenyl)-3,4-dimethyl benzamide]: the IC50 was at most 50 nM.

On to `Cc1cc(C)cc(C(=O)Nc2cccc([C@@H](C)Oc3cc(-c4cnn(C)c4)cnc3N)c2)c1` [Compound 171, (R)-N-(3-(1-((2-amino-5-(1-methyl-1H-pyrazol-4-yl)pyridin-3-yl)oxy)ethyl)phenyl)-3,5-dimethyl benzamide], for which the IC50 is at most 50 nM.

Take `CC(C)c1cccc(C(=O)Nc2cccc([C@@H](C)Oc3cc(-c4cnn(C)c4)cnc3N)c2)c1` [Compound 187, (R)-N-(3-(1-((2-amino-5-(1-methyl-1H-pyrazol-4-yl)pyridin-3-yl)oxy)ethyl)phenyl)-3-isopropylbenzamide]: the IC50 was at most 50 nM.

As for `Cn1cc(-c2cnc(N)c(Oc3cccc(NC(=O)Nc4ccc(Cl)c(C(F)(F)F)c4)c3)c2)cn1` [Compound 348, 1-(3-((2-amino-5-(1-methyl-1H-pyrazol-4-yl)pyridin-3-yl)oxy)phenyl)-3-(4-chloro-3-(trifluoromethyl)phenyl)urea], the IC50 is at most 50 nM.

For the molecule `Nc1ncc(Cl)cc1OCc1cccc(NC(=O)c2cccc(Cl)c2)c1` [Compound 22, N-(3-(((2-amino-5-chloropyridin-3-yl)oxy)methyl)phenyl)-3-chloro-benzamide], the IC50 is at most 50 nM.

On to `COc1cccc(C(=O)Nc2cc(C(C)Oc3cc(Cl)cnc3N)ccc2F)c1` (centres unmarked) [Compound 318, N-(5-(1-((2-amino-5-chloropyridin-3-yl)oxy)ethyl)-2-fluorophenyl)-3-methoxybenzamide], for which the IC50 was 51 to 500 nM.

Regarding `Cc1cccc(C(=O)Nc2cccc([C@@H](C)Oc3cncc(Cl)c3)c2)c1` [Compound 323, (R)—N-(3-(1-((5-chloropyridin-3-yl)oxy)ethyl)phenyl)-3-methylbenzamide], the IC50 fell in the range of 51 to 500 nM.

`Cc1cccc(C(=O)Nc2ccc(Cl)c([C@@H](C)Oc3cc(Cl)cnc3N)c2)c1Cl` [Compound 95, (R)-N-(3-(1-((2-amino-5-chloropyridin-3-yl)oxy)ethyl)-4-chlorophenyl)-2-chloro-3-methylbenzamide]: the concentration for half-maximal inhibition (IC50) fell in the range of 51 to 500 nM.

On to `C[C@@H](Oc1cncc(Cl)n1)c1cccc(NC(=O)c2cccc(C(F)(F)F)c2)c1` [Compound 327, (R)—N-(3-(1-((6-chloropyrazin-2-yl)oxy)ethyl)phenyl)-3-(trifluoromethyl)benzamide], for which the IC50 was 51 to 500 nM.

For the molecule `Cc1cccc(C(=O)Nc2cccc([C@@H](C)Oc3cc(-c4cccnc4)cnc3N)c2)c1` [Compound 202, (R)-N-(3-(1-((6-amino-[3,3′-bipyridin]-5-yl)oxy)ethyl)phenyl)-3-methylbenzamide], the concentration for half-maximal inhibition (IC50) is at most 50 nM.

The next assay has as its system NFS-60 cells. The assay is described as follows: NFS-60 cell assay (CCK proliferation, M-CSF stimulated). Type of assay: cell-based. The conditions noted are these: Mus musculus, compound 0.5 uM, 72 h, 40 ng/mL M-CSF, read-out: inhibition ratio % (NFS-60 cell proliferation). As to the method: Example 54: NFS-60 Cell Assay
1. Experimental Materials
Mouse Myelogenous Leukemia Cells (NFS-60)
Using DMSO to dissolve, and the required concentration was prepared with full culture medium without factors.
Penicillin-streptomycin: TRANS
Mouse M-CSF/CSF-1 Protein: Sino Biological Inc, No. 51112-MNAH
M-CSF: Qilu Pharmaceutical co., Ltd.
The logarithmic growth phase of NFS-60 cells (1640+10% FBS+40 ng/ml M-CSF+1% Penicillin-streptomycin) were centrifuged (1000 r/min) and cultured in a factor-free medium at 37° C., 5% CO2 for 24 hours. Centrifugating (1000 r/min), the culture medium was replaced by new culture medium including 40 ng/mL factors, and inoculated on 96-well plate by 2*10^4 cells/mL, 100 μL/hole. After 16 hours, the tested compounds were added 10 μL/hole, 3 duplicate holes per compound, 37° C., 5% CO2, continue to cultured for 72 h. Then 10 μL CCK reagent was added to each hole. After incubation for 4 hours, the absorbance of each hole was measured at 450 nm wavelength. According to Formula: Inhibitory rate (%)=(1-OD value of test pore/OD value of solvent control pore)×100% 3. Experimental Results The experimental results of the inhibition of NFS-60 cell proliferation by the compounds prepared in Example 3-52, 0.5 uM, are shown in the following table: […]
As for `Cc1cc(C)cc(C(=O)Nc2cccc([C@@H](C)Oc3cc(Cl)cnc3N)c2)c1` [Compound 137, (R)-N-(3-(1-((2-amino-5-chloropyridin-3-yl)oxy)ethyl)-phenyl)-3,5-dimethylbenzamide], the inhibition at 0.5 µM is at least 50%.
